Tests used:
hairless SKH-1 mice = assay: UV damage in skin of hairless SKH-1 mice after topical PHF
Procedure: PHF (obtained from MER Corp.) was dissolved in water and applied on the right flank (2 cm×1 cm) of the dorsal region of hairless SKH-1 mice. The left flank (2 cm×1 cm) of the same mouse was used as a control with topical application of deionized water. The topical applications were allowed to dry for 15 minutes followed by UV exposure (80 mJ/cm^2; 90% UVB and 10% UVA). […] Mice were euthanized 48 hours post-UV exposure, and the skin was harvested for histological analysis or immunofluorescent staining.

skin sections = assay: Blinded scoring of erythema and edema of UVB-exposed skin sections in a preclinical model; format: in vivo; settings: UVB 120 mJ/cm^2, 48 hours, blinded panel
Procedure: PHF is a single, multifunctional active that replaces multiple actives of current sunscreen formulations. […] The concentration of PHF was optimized and the minimum concentration of PHF that prevents symptoms of sunburn (erythema and edema) was determined. In a preclinical model, different skin sections were applied with PHF formulation, SPF60 commercial sunscreen, vehicle (without PHF) samples and control (no application). All skin sections were exposed to UVB at 120 mJ/cm^2 dose. The skin sections were monitored for erythema (redness) and edema (swelling) at 24, 48 and 72 hours. Maximum erythema is usually observed at 48 hours. The photographs of skin sections at 48 hours were scored by a panel consisting of two dermatologists and two non-dermatologists. The panel was blinded to the identity of the samples. The result of blinded scoring study is plotted in FIG. 5. […] [table]

[1] = Photolability, comparison of sunscreen actives (Table 1); format: physicochemical; settings: Table 1 comparison of actives
[2] = cited from earlier work
Nrf2 pathway = settings: Ye et al. 2014; cited from earlier work
[3] = UV-Visible absorbance spectra of PHF solution vs commercial SPF60 sunscreen; format: physicochemical; settings: PHF solution 0.5 mg/mL in 25% glycerol
Procedure: The inventors discovered that PHF absorbs UV more effectively than commercial sunscreens. For initial comparisons (FIG. 2), the UV-Vis absorption of PHF solution at 0.5 mg/mL (prepared in 25% glycerol) was compared with Neutrogena SPF 60 (4.9% Titanium dioxide and 4.7% Zinc oxide) sunscreen at 5 mg/mL (in de-ionized water). The total concentration of AI in the commercial sunscreen suspension was equal to that of PHF (0.5 mg/mL) solution. PHF is a broad spectrum UV absorber, as its critical wavelength of 381 nm and UVA/UVB ratio of 1.6 exceeds the FDA limit of 370 nm and 0.91, respectively. The absorbance of PHF is 2.5-1.9 times higher in the UVB region (280-320 nm) and 1.9-1.5 times higher in the UVA region (320-400 nm) than SPF60 sunscreen. This high UV absorptive ability of PHF (for preventing direct damage from UVB and UVA) becomes even more important when combined with other potential advantages of PHF (preventing indirect free radical mediated damage) over current sunscreen AIs, as summarized in Table 1 and FIG. 3.

[4] = cited from earlier work; remark: listed apart in the source
[5] = 48 hours post-UV exposure, vs water control flank

Substance: polyhydroxy fullerene [PHF]
- erythema (sunburn) (hairless SKH-1 mice; 24 hours after UV exposure (80 mJ/cm^2; 90% UVB and 10% UVA), topical PHF in water vs water control flank): did not show any signs of erythema
- DNA photoproducts (cyclopyrimidine dimers, CPD) (hairless SKH-1 mice; [5]): fewer DNA photoproducts
- epidermal cell death (dyskeratotic sunburn cells), histology (hairless SKH-1 mice; [5]): marked reduction in epidermal cell death
- recovery of proliferation (Ki-67) (hairless SKH-1 mice; [5]): faster recovery of proliferation
- erythema and edema score vs commercial SPF60 sunscreen (skin sections): on par with commercial SPF60 sunscreen
- erythema and edema score vs control and vehicle only (skin sections; α=0.01): reduced erythema and edema significantly
- Photolabile [1]: No
- ROS susceptibility ([2]; Table 1 comparison of actives): Catalytically
- neutralization of free radicals ([2]; superoxide, nitric oxide, etc., Yin et al. 2009): can catalytically neutralize different types of free radicals
- Nrf2 pathway activation (Nrf2 pathway): activates the Nrf2 pathway
- UVA/UVB ratio ([3]; FDA limit 0.91): 1.6
- critical wavelength ([3]; FDA limit 370 nm): 381 nm
- free radical generation on UV absorption ([4]; Krishna et al. 2008): without generating free radicals
- Potential ROS generation ([4]; Table 1 comparison of actives): None

From patent US11957769B2, “Polyhydroxy fullerene sunscreen active agents and compositions” (THE CLEVELAND CLINIC FOUNDATION, priority 2016, dated 2024)
